{"source": "ChEMBL document CHEMBL1136708", "about": "“Structure-based design of inhibitors of human L-xylulose reductase modelled into the active site of the enzyme” (Bioorg Med Chem Lett, 2003)"}
{"target": "L-xylulose reductase (Homo sapiens) (UniProt Q7Z4W1)", "sequence (Q7Z4W1 whole entry)": "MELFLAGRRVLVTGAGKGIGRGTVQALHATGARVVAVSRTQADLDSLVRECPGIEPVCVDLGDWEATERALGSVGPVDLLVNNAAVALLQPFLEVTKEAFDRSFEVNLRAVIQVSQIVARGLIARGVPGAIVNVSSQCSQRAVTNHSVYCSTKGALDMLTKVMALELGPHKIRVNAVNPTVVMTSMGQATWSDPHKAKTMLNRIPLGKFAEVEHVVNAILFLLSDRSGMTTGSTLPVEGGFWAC", "assay": "Protein interaction energy by using binding affinity towards human L-xylulose reductase enzyme", "units": {"Protein interaction energy": "kcal/M"}}
{"smiles": "CCC(C(=O)O)C(=O)O", "Protein interaction energy": -86.7}
{"target": "L-xylulose reductase (Homo sapiens) (UniProt Q7Z4W1)", "units": {"Protein interaction energy": "kcal/M"}}
{"smiles": "CCC(O)C(=O)O", "note": "(stereo not given)", "Protein interaction energy": -38.4}
{"smiles": "CCCOP(=O)(O)O", "Protein interaction energy": -87.4}
{"smiles": "CO[PH](O)(O)OCC(=O)O", "Protein interaction energy": -114}
{"smiles": "CCC(C(=O)O)c1ccc(O)cc1", "note": "(stereo not given)", "Protein interaction energy": -51.6}
{"smiles": "O=C(O)CCC(=O)O", "Protein interaction energy": -114}
{"smiles": "O=C(O)CC(C(=O)O)C(=O)O", "Protein interaction energy": -163}
{"smiles": "CCCC(=O)O", "Protein interaction energy": -40.4}
{"smiles": "CCC(CO)C(=O)O", "note": "(stereo not given)", "Protein interaction energy": -41.4}
{"smiles": "CCCc1ccc(O)cc1", "Protein interaction energy": -26.9}
